Molecular target: T1, KRAS G12C 1-169, his-tagged protein, GDP-loaded (Homo sapiens, UniProt P01116, G12C)
T1 construct: KRAS G12C 1-169, his-tagged protein, GDP-loaded
Test: Biochemical assay: covalent modification of KRAS G12C measured by mass spectrometry (RapidFire/TOF or Q-Exactive)
Conditions: covalent binding to KRAS G12C; compounds of structure (I)
In short: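 Covalent adduct formation read by intact-mass spectrometry (TOF or Q Exactive Plus, charge envelopes deconvoluted into modified and unmodified species) after formic acid quench. Reactions contained 2 μM GDP-bound KRAS G12C 1-169 (his-tag) in Hepes/NaCl/MgCl2 buffer plus 10, 30 or 100 μM final compound, held 30 min, 2 h or 24 h at room temperature.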

Compound | Binding %
C=CC(=O)N1CCN(c2nc(N3CC(N4CCN(C)CC4)C3)nc3c(F)c(-c4c(O)cccc4F)c(Cl)cc23)CC1 [Example I-41, 1-(4-(6-chloro-8-fluoro-7-(2-fluoro-6-hydroxyphenyl)-2-(3-(4-methyl-piperazin-1-yl)azetidin-1-yl)quinazolin-4-yl)piperazin-1-yl)prop-2-en-1-one] | +++ (+++ indicates binding activity greater than 90%)
C=CC(=O)N1CCN(c2nc(N3CC(N(CC)CC)C3)nc3c(F)c(-c4c(C)ccc5[nH]ncc45)c(Cl)cc23)CC1 [Example I-144, 1-(4-(6-chloro-2-(3-(diethylamino)azetidin-1-yl)-8-fluoro-7-(5-methyl-1H-indazol-4-yl)quinazolin-4-yl)piperazin-1-yl) prop-2-en-1-one] | +++ (+++ indicates binding activity greater than 90%)
C=CC(=O)N1CCN(c2nc(SCCN3CCOCC3)nc3c(F)c(-c4c(O)cccc4F)c(Cl)cc23)CC1 [Example I-17, 1-(4-(6-chloro-8-fluoro-7-(2-fluoro-6-hydroxyphenyl)-2-(2-morpholino-ethylthio)quinazolin-4-yl)piperazin-1-yl)prop-2-en-1-one] | ++ (++ indicates binding activity from 50 to 90%)
C=CC(=O)N1CCN(c2nc(CCN3CC(C)(N(C)C)C3)nc3c(F)c(-c4c(O)cccc4F)c(Cl)cc23)CC1 [Example I-198, 1-(4-(6-chloro-2-(2-(3-(dimethyl-amino)-3-methyl-azetidin-1-yl)ethyl)-8-fluoro-7-(2-fluoro-6-hydroxyphenyl)quinazolin-4-yl)piperazin-1-yl) prop-2-en-1-one] | ++ (++ indicates binding activity from 50 to 90%)
C=CC(=O)N1CCN(c2nc(OCCN3CCOCC3)nc3c(F)c(-c4cc(O)cc5cccnc45)c(Cl)cc23)CC1 [Example I-108, 1-(4-(6-chloro-8-fluoro-7-(6-hydroxy-quinolin-8-yl)-2-(2-morpholino-ethoxy)quinazolin-4-yl)piperazin-1-yl) prop-2-en-1-one] | +++ (+++ indicates binding activity greater than 90%)
C=CC(=O)N1CCN(c2nc(N3CC(N(C)C)C3)nc3c(F)c(-c4c(O)cccc4F)c(Cl)cc23)CC1 (atropisomer, axis not shown) [Example I-116, (S)-1-(4-(6-chloro-2-(3-(dimethylamino)azetidin-1-yl)-8-fluoro-7-(2-fluoro-6-hydroxyphenyl)quinazolin-4-yl)piperazin-1-yl) prop-2-en-1-one] | +++ (+++ indicates binding activity greater than 90%)
C=CC(=O)N1CCN(c2nc(NC3CCN(C4COC4)CC3)nc3c(F)c(-c4c(C)ccc5[nH]ncc45)c(Cl)cc23)CC1 [Example I-137, 1-(4-(6-chloro-8-fluoro-7-(5-methyl-1H-indazol-4-yl)-2-(1-(oxetan-3-yl)piperidin-4-ylamino)quinazolin-4-yl)piperazin-1-yl) prop-2-en-1-one] | +++ (+++ indicates binding activity greater than 90%)
C=CC(=O)N1CCN(c2nc(OC3CCN(C)CC3)nc3c(F)c(-c4c(C)ccc5[nH]ncc45)c(Cl)cc23)CC1 [Example I-59, 1-(4-(6-chloro-8-fluoro-7-(5-methyl-1H-indazol-4-yl)-2-(1-methyl-piperidin-4-yloxy)quinazolin-4-yl)piperazin-1-yl)prop-2-en-1-one] | +++ (+++ indicates binding activity greater than 90%)
C=CC(=O)N1CCN(c2nc(N3CC(N4CCN(C5CC5)CC4)C3)nc3c(F)c(-c4c(C)ccc5[nH]ncc45)c(Cl)cc23)CC1 [Example I-176, 1-(4-(6-chloro-2-(3-(4-cyclopropyl-piperazin-1-yl)azetidin-1-yl)-8-fluoro-7-(5-methyl-1H-indazol-4-yl)quinazolin-4-yl)piperazin-1-yl) prop-2-en-1-one] | ++ (++ indicates binding activity from 50 to 90%)
C=CC(=O)N1CCN(c2nc(NCCO)nc3c(F)c(-c4c(C)ccc5[nH]ncc45)c(Cl)cc23)CC1 [Example I-5, 1-(4-(6-chloro-8-fluoro-2-(2-hydroxyethyl-amino)-7-(5-methyl-1H-indazol-4-yl)quinazolin-4-yl)piperazin-1-yl)prop-2-en-1-one] | + (+ indicates binding activity up to 50%)
C=CC(=O)N1CCN(c2nc(OCCN3CCCC3=O)nc3c(F)c(-c4c(O)cccc4F)c(Cl)cc23)CC1 [Example I-16, 1-(2-(4-(4-acryloyl-piperazin-1-yl)-6-chloro-8-fluoro-7-(2-fluoro-6-hydroxyphenyl)quinazolin-2-yloxy)ethyl) pyrrolidin-2-one] | +++ (+++ indicates binding activity greater than 90%)
C=CC(=O)N1CCN(c2nc(C(F)(F)F)nc3c(F)c(-c4c(O)cccc4F)c(Cl)cc23)CC1 [Example I-204, 1-(4-(6-chloro-8-fluoro-7-(2-fluoro-6-hydroxyphenyl)-2-(trifluoro-methyl)quinazolin-4-yl)piperazin-1-yl) prop-2-en-1-one] | ++ (++ indicates binding activity from 50 to 90%)
C=CC(=O)N1CCN(c2nc(NC3CCN(CC(F)(F)F)CC3)nc3c(F)c(-c4c(O)cccc4F)c(Cl)cc23)CC1 [Example I-21, 1-(4-(6-chloro-8-fluoro-7-(2-fluoro-6-hydroxyphenyl)-2-(1-(2,2,2-trifluoroethyl)piperidin-4-ylamino)quinazolin-4-yl)piperazin-1-yl)prop-2-en-1-one] | + (+ indicates binding activity up to 50%)
C=CC(=O)N1CCN(c2nc(NCCc3ccccn3)nc3c(F)c(-c4c(C)ccc5[nH]ncc45)c(Cl)cc23)CC1 [Example I-142, 1-(4-(6-chloro-8-fluoro-7-(5-methyl-1H-indazol-4-yl)-2-(2-(pyridin-2-yl)ethylamino)quinazolin-4-yl)piperazin-1-yl) prop-2-en-1-one] | +++ (+++ indicates binding activity greater than 90%)
C=CC(=O)N1CCN(c2nc(NC3CCN(C4CC4)CC3)nc3c(F)c(-c4c(C)ccc5[nH]ncc45)c(Cl)cc23)CC1 [Example I-20, 1-(4-(6-chloro-2-(1-cyclopropyl-piperidin-4-ylamino)-8-fluoro-7-(5-methyl-1H-indazol-4-yl)quinazolin-4-yl)piperazin-1-yl)prop-2-en-1-one] | +++ (+++ indicates binding activity greater than 90%)
C=CC(=O)N1CCN(c2nc(N3CC4(CCOC4)C3)nc3c(F)c(-c4c(C)ccc5[nH]ncc45)c(Cl)cc23)CC1 [Example I-156, 1-(4-(6-chloro-8-fluoro-7-(5-methyl-1H-indazol-4-yl)-2-(6-oxa-2-azaspiro[3,4]octan-2-yl)quinazolin-4-yl)piperazin-1-yl) prop-2-en-1-one] | +++ (+++ indicates binding activity greater than 90%)
C=CC(=O)N1CCN(c2nc(OCC(=O)N(C)C)nc3c(F)c(-c4c(O)cccc4F)c(Cl)cc23)CC1 [Example I-8, 2-(4-(4-acryloyl-piperazin-1-yl)-6-chloro-8-fluoro-7-(2-fluoro-6-hydroxyphenyl)quinazolin-2-yloxy)-N,N-dimethyl-acetamide] | +++ (+++ indicates binding activity greater than 90%)
C=CC(=O)N1CCN(c2nc(NC3CCN(C4CC4)CC3)nc3c(F)c(-c4c(C)ccc5[nH]ncc45)c(Cl)cc23)CC1 (atropisomer, axis not shown) [Example I-82, (R)-1-(4-(6-chloro-2-(1-cyclopropyl-piperidin-4-ylamino)-8-fluoro-7-(5-methyl-1H-indazol-4-yl)quinazolin-4-yl)piperazin-1-yl)prop-2-en-1-one] | +++ (+++ indicates binding activity greater than 90%)
Cc1ccc2[nH]ncc2c1-c1c(Cl)cc2c(N3CCN(C(=O)/C=C/CN(C)C)CC3)nc(OCCN3CCCC3=O)nc2c1F [Example I-2, (E)-1-(2-(6-chloro-4-(4-(4-(dimethylamino)but-2-enoyl)piperazin-1-yl)-8-fluoro-7-(5-methyl-1H-indazol-4-yl)quinazolin-2-yloxy)ethyl) pyrrolidin-2-one] | + (+ indicates binding activity up to 50%)
C=CC(=O)N1CCN(c2nc(N3CC(N4CCOCC4)C3)nc3c(F)c(-c4c(O)cccc4F)c(Cl)cc23)CC1 [Example I-24, 1-(4-(6-chloro-8-fluoro-7-(2-fluoro-6-hydroxyphenyl)-2-(3-morpholino-azetidin-1-yl)quinazolin-4-yl)piperazin-1-yl)prop-2-en-1-one] | +++ (+++ indicates binding activity greater than 90%)

Same assay, conditions: covalent binding to KRAS G12C; compounds of structure (III)

Compound | Binding %
C=CC(=O)N1C[C@H](C)N(c2ncnc3c(F)c(-c4c(F)cccc4OC)c(Cl)cc23)C[C@H]1C [III-2, 1-((2R,5S)-4-(6-chloro-8-fluoro-7-(2-fluoro-6-methoxy-phenyl)quinazolin-4-yl)-2,5-dimethyl-piperazin-1-yl)prop-2-en-1-one] | + (+ indicates binding activity up to 50%)
C=CC(=O)N1CCN(c2ncnc3c(F)c(-c4c(O)cccc4F)c(Cl)cc23)CC1C(F)(F)F (stereo not drawn) [III-11, 1-(4-(6-chloro-8-fluoro-7-(2-fluoro-6-hydroxy-phenyl)quinazolin-4-yl)-2-(trifluoro-methyl)piperazin-1-yl)prop-2-en-1-one] | +++ (+++ indicates binding activity greater than 90%)
C=CC(=O)N1C[C@@H](C)N(c2ncnc3c(F)c(-c4c(C)ccc5cn[nH]c45)c(Cl)cc23)[C@@H](C)C1 [III-42, 1-((3S,5R)-4-(6-chloro-8-fluoro-7-(6-methyl-1H-indazol-7-yl)quinazolin-4-yl)-3,5-dimethyl-piperazin-1-yl)prop-2-en-1-one] | ++ (++ indicates activity from 50% to 90%)
C=CC(=O)N1C[C@@H](C)N(c2ncnc3c(F)c(-c4c(O)cccc4F)c(Cl)cc23)[C@@H](C)C1 (atropisomer, axis not shown) [III-4, 1-((3S,5R)-4-((R)-6-chloro-8-fluoro-7-(2-fluoro-6-hydroxy-phenyl)quinazolin-4-yl)-3,5-dimethyl-piperazin-1-yl)prop-2-en-1-one] | + (+ indicates binding activity up to 50%)

Source: patent US10829458B2 (Araxes Pharma LLC, priority 2015, dated 2020)
